Laboratory results: publication PMC6722498, “Non-CYP2D6 Variants Selected by a GWAS Improve the Prediction of Impaired Tamoxifen Metabolism in Patients with Breast Cancer” (Journal of Clinical Medicine, 2019)
Several values for one entry are separate records, joined by “and”; a condition that tells them apart may be missing. Equal entries are not always repeated. Where two headings read alike, the source gives them in different places. Blank lines part the entries; values can stand above or below the compound they belong to.

What was measured:
[1] = design: method as in PMID 26232141; conditions: Polish women with fully active CYP2D6 (NM/NM); tamoxifen 20 mg daily; cited from earlier work
[2] = design: method as in PMID 26232141; conditions: simple linear regression; corresponds to predefined 6 ng mL^−1 (Z)-endoxifen threshold; cited from earlier work
[3] = Steady-state plasma concentration of (Z)-endoxifen (UPLC-MS/MS) in tamoxifen-treated breast cancer patients; assay type: in vivo, human; conditions: tamoxifen 20 mg daily
Description: (§1) Between May 2012 and June 2014, 293 patients were recruited for a study of CYP2D6 genotype association with plasma concentrations of tamoxifen and its metabolites. Details of the inclusion criteria, study protocol, genotyping and mass spectrometry (MS) methodology, and primary results were reported previously. Briefly, all patients were Polish Caucasians, unselected women with verified hormone receptor-positive breast cancer (median age at diagnosis: 55 years; range: 25–95 years) receiving the standard treatment of 20 mg of tamoxifen daily for at least 1 month to ensure the steady-state plasma concentration of tested compounds. The median time between the initiation of tamoxifen treatment and blood sample collection was 21.5 months. Six patients had plasma drug concentrations <10% of the mean tamoxifen level across all patients and were excluded from further analyses.
(§2) As previously described, whole blood samples were collected at study enrollment, and plasma was immediately separated and stored at −80 °C until ultraperformance liquid chromatography tandem MS (UPLC-MS/MS) analysis. For all samples, plasma concentrations of tamoxifen and its 14 key metabolites were measured, including the following: NDM-Tam, (Z)-endoxifen, (E)-endoxifen, 3-OH-NDM-Tam, 4′-OH-NDM-Tam, (Z)-4-OH-Tam, 3-OH-Tam, 4′-OH-Tam, (Z)-α-OH-Tam, (E)-α-OH-Tam, Tam-N-oxide, Tam-N-β-D-glucuronide (Tam-N-gluc), (E/Z)-4-OH-NDM-Tam-β-D-glucuronide ((E/Z)-4-OH-NDM-Tam-gluc), and (E)-4-OH-Tam-O-β-D-glucuronide ((E)-4-OH-Tam-O-gluc). All of the above compounds and deuterated internal standards (Tam-d5, NDM-Tam-d5, and (Z)-4-OH-Tam-d5) were from Toronto Research Chemicals (North York, ON, Canada). Details of the sample preparation method, MS/MS parameters, and linearity ranges of the metabolite standards are included in File S1.
Sample preparation was carried out as described by Dahmane et al., with slight modifications, including protein precipitation by acetonitrile. Briefly, 100 µl of plasma was mixed with 300 µl of ISs solution (3.3 ng/ml of Tam-d5, 3.3 ng/ml of NDM-Tam-d5 and 4.2 ng/ml of (Z)-4-OH-Tam-d5) in acetonitrile. After vortexing and centrifugation (10 min; 18,000× g), 350 µl of clear supernatant was evaporated under nitrogen in 55°C. Finally, samples were dissolved in 100 µl of 10 mM ammonium formate in 50% methanol.
For sample separation, an Acquity UPLC system equipped with Acquity BEH Shield RP18 column (100 × 2.1 mm, 1.7 µm particle size) (Waters, Milford, MA, USA) was used. The column was thermostatted at 70°C. The mobile phase A consisted of ultrapure water, and phase B consisted of 0.1% formic acid in acetonitrile. The flow rate was 0.6 ml/min and the total run time was 16 min per sample under nonlinear gradient condition as follows: 10% to 80% B for 12 min (concave curve), 80% B for 2 min, 95% B for 1 min and 10% B for 1 min.
Detection was performed on a triple quadrupole mass spectrometer Xevo TQ-MS (Waters) in the positive ion electrospray ionization mode, with general mass spectrometry (MS) parameters as follows: capillary voltage, 3 kV; desolvation temperature, 550°C; desolvation gas (nitrogen) flow, 1000 l/h; cone gas (nitrogen) flow, 100 l/h and collision gas (argon) flow, 0.15 ml/min. Waters QuanLynx software was used for chromatograms integration and quantitation.
All compounds were divided between two calibration sets, A and B (Table 1), based on characteristic ions and retention times. Each set consisted of six calibration samples (CAL1 to CAL6) prepared by spiking blank plasma sample by an appropriate amount of analyte. The calibration range was chosen based on others’ published data, expected steady-state plasma metabolite concentration and our previous measurements. Linear calibration curves were obtained by plotting response (obtained by dividing peak area of analyte by peak area of internal standard) against calibration point of known concentration. […]

[4] = Metabolic ratio (MR): (Z)-endoxifen plasma concentration divided by the sum of concentrations of tamoxifen and other measured metabolites; assay type: in vivo, human; conditions: for Metabolic Ratio of (Z)-endoxifen, Mean ± SD: tamoxifen 20 mg daily, plasma; for Metabolic ratio (MR): individual tamoxifen-treated breast cancer patient samples
Description: We previously reported that the CYP2D6 genotype accounts for 51% of the variability in tamoxifen metabolism directed toward endoxifen production, expressed as the metabolic ratio (MR) of (Z)-endoxifen (the major isomer of endoxifen produced from tamoxifen) plasma concentration divided by the sum of concentrations of tamoxifen and other measured metabolites. The metabolic ratio is more useful than (Z)-endoxifen concentration alone, because it accounts for omitted drug doses or the concomitant use of CYP2D6 inhibitors. Using simple linear regression, we estimated that an MR value of 0.0146 corresponds to the predefined 6 ng mL^−1 (Z)-endoxifen efficacy threshold level. Here, we adopted a genome-wide association study (GWAS) approach to search for new DNA variants that could assist in the prediction of impaired tamoxifen metabolism in Polish patients with breast cancer treated with the standard daily dose (20 mg).
as §1, §2
Genomic DNA samples extracted from blood were genotyped for CYP2D6 alleles, according to the nomenclature described at https://www.parmvar.org/gene/CYP2D6 [10], as previously reported. Briefly, individual TaqMan allelic discrimination assays were performed for 11 SNPs, and 3 TaqMan Gene Copy Number Assays were conducted to assess gene deletion or duplication (Thermo Fisher, Waltham, MA, USA). Each CYP2D6 allele was assigned to one of four phenotypic categories, according to its associated enzyme function. PM (nonfunctional) alleles included CYP2D6*3, *4, *5, *6, and *7; IM (reduced-function) alleles were CYP2D6*9, *10, *17, and *41; NM (WT; fully functional) alleles included CYP2D6*1 and *2; and UM (increased-function) alleles were duplicates of NM variants, such as CYP2D6*1XN and *2XN. For the current study, patients were categorized into two groups of CYP2D6 functional activity: 1) Impaired metabolizers, who were presumed to have impaired metabolism of tamoxifen toward endoxifen (with CYP2D6 diplotypes PM/PM, IM/PM, IM/IM, NM/PM, and NM/IM), and 2) normal metabolizers, with predicted therapeutically effective tamoxifen metabolism (carrying CYP2D6 diplotypes NM/NM and NM/UM).

estrogen receptor (ER) = system: estrogen receptor (ER); design: method as in PMID 15111773, PMID 16690721, PMID 21451508; conditions: fold higher; cited from earlier work
breast cancer = conditions: cited from earlier work

(Z)-endoxifen steady-state plasma concentration, Mean ± SD ([3]; CYP2D6 genotype IM/IM (n=3)): 3.05 ± 1.91 ng/mL
(Z)-endoxifen steady-state plasma concentration, Mean ± SD ([3]; CYP2D6 genotype IM/PM (n=12)): 2.22 ± 0.87 ng/mL
(Z)-endoxifen steady-state plasma concentration, Mean ± SD ([3]; CYP2D6 genotype NM/IM (n=44)): 5.60 ± 3.26 ng/mL
(Z)-endoxifen steady-state plasma concentration, Mean ± SD ([3]; CYP2D6 genotype NM/NM (n=90)): 7.26 ± 3.18 ng/mL
(Z)-endoxifen steady-state plasma concentration, Mean ± SD ([3]; CYP2D6 genotype NM/PM (n=99)): 4.85 ± 2.46 ng/mL
(Z)-endoxifen steady-state plasma concentration, Mean ± SD ([3]; CYP2D6 genotype NM/UM (n=18)): 6.96 ± 3.75 ng/mL
(Z)-endoxifen steady-state plasma concentration, Mean ± SD ([3]; CYP2D6 genotype PM/PM (n=21)): 1.79 ± 0.66 ng/mL
Metabolic Ratio of (Z)-endoxifen, Mean ± SD ([4]; CYP2D6 genotype IM/IM (n=3)): 0.0063 ± 0.0022
Metabolic Ratio of (Z)-endoxifen, Mean ± SD ([4]; CYP2D6 genotype IM/PM (n=12)): 0.0047 ± 0.0014
Metabolic Ratio of (Z)-endoxifen, Mean ± SD ([4]; CYP2D6 genotype NM/IM (n=44)): 0.0125 ± 0.0054
Metabolic Ratio of (Z)-endoxifen, Mean ± SD ([4]; CYP2D6 genotype NM/NM (n=90)): 0.0185 ± 0.0057
Metabolic Ratio of (Z)-endoxifen, Mean ± SD ([4]; CYP2D6 genotype NM/PM (n=99)): 0.0108 ± 0.0043
Metabolic Ratio of (Z)-endoxifen, Mean ± SD ([4]; CYP2D6 genotype NM/UM (n=18)): 0.0201 ± 0.0076
Metabolic Ratio of (Z)-endoxifen, Mean ± SD ([4]; CYP2D6 genotype PM/PM (n=21)): 0.0037 ± 0.0013
Compound: CC/C(=C(\c1ccc(O)cc1)c1ccc(OCCNC)cc1)c1ccccc1 [(Z)-endoxifen, (Z)-4-hydroxy-N-desmethyl-tamoxifen]
proportion of patients not achieving the beneficial threshold level of plasma (Z)-endoxifen [1]: over 30%
MR value corresponding to the (Z)-endoxifen efficacy threshold level [2]: 0.0146
Metabolic ratio (MR) ([4]; CYP2D6 genotype IM/PM): 0.00274 and 0.00459 and 0.0029 and 0.00363
Metabolic ratio (MR) ([4]; CYP2D6 genotype NM/IM): 0.00647 and 0.0081 and 0.00839 and 0.01209 and 0.0056 and 0.01085 and 0.0096 and 0.00997 and 0.01604
Metabolic ratio (MR) ([4]; CYP2D6 genotype NM/NM): 0.01773 and 0.01628 and 0.0192 and 0.02007 and 0.01314 and 0.01689 and 0.01957 and 0.01357 and 0.0089 and 0.01713 and 0.01204 and 0.01768 and 0.01853 and 0.01753 and 0.01866 and 0.01752 and 0.01504 and 0.00404 and 0.01279 and 0.01592 and 0.01076 and 0.01005 and 0.01645
Metabolic ratio (MR) ([4]; CYP2D6 genotype NM/PM): 0.01496 and 0.01155 and 0.00944 and 0.00815 and 0.01001 and 0.01495 and 0.00803 and 0.01657 and 0.01419 and 0.01098 and 0.0072 and 0.00801 and 0.01175 and 0.00523 and 0.00652 and 0.00522 and 0.00788 and 0.00603 and 0.00607 and 0.00605 and 0.01073
Metabolic ratio (MR) ([4]; CYP2D6 genotype NM/UM): 0.013 and 0.01894 and 0.02933 and 0.01233
Metabolic ratio (MR) ([4]; CYP2D6 genotype PM/PM): 0.00294 and 0.00405 and 0.0035 and 0.00163

Compound: CC/C(=C(\c1ccc(O)cc1)c1ccc(OCCNC)cc1)c1ccccc1 [endoxifen, 4-hydroxy-N-desmethyl-tamoxifen]
antiestrogenic potency relative to other tamoxifen metabolites and the parent drug (estrogen receptor (ER)): up to 100 fold
minimal threshold level of endoxifen to achieve the desired treatment efficacy (breast cancer; large retrospective study, lowest quintile): > 5.97 ng/mL
lower breast cancer recurrence rate relative to patients with lower endoxifen concentrations (breast cancer; patients with endoxifen concentration >5.97 ng mL^−1): 26%
endoxifen efficacy threshold level (breast cancer; ref 30): 5.3 ng/mL
endoxifen efficacy threshold level (breast cancer; ref 32): 3.36 ng/mL

Compound: 4-hydroxy-tamoxifen [4-OH-Tam]
antiestrogenic potency relative to other tamoxifen metabolites and the parent drug (estrogen receptor (ER)): up to 100 fold
